The source of these data is patent US8871681B2, “Herbicidal compositions comprising 4-amino-3-chloro-5-fluoro-6-(4-chloro-2-fluoro-3-methoxyphenyl) pyridine-2-carboxylic acid or a derivative thereof and certain sulfonylureas” (Dow AgroSciences LLC, priority 2012, dated 2014).

Test [1] has as its system FIMMI (Fimbristylis miliacea, globe fringerush). The test is described as follows: In-water applied weed control, transplanted paddy rice, greenhouse (Example II). Format: in vivo, Fimbristylis miliacea (L.) Vahl. As to the method:
(§1) Weed seeds or nutlets of the desired test plant species were planted in puddled soil (mud) prepared by mixing a shredded, non-sterilized mineral soil (50.5 percent silt, 25.5 percent clay, and 24 percent sand, with a pH of about 7.6 and an organic matter content of about 2.9 percent) and water at a 1:1 volumetric ratio. The prepared mud was dispensed in 365 mL aliquots into 16-ounce (oz.) non-perforated plastic pots with a surface area of 86.59 square centimeters (cm^2) leaving a headspace of 3 centimeters (cm) in each pot. Rice seeds were planted in Sun Gro MetroMix® 306 planting mixture, which typically has a pH of 6.0 to 6.8 and an organic matter content of about 30 percent, in plastic plug trays. Seedlings at the second or third leaf stage of growth were transplanted into 860 mL of mud contained in 32-oz. non-perforated plastic pots with a surface area of 86.59 cm^2 4 days prior to herbicide application. The paddy was created by filling the headspace of the pots with 2.5 to 3 cm of water. When required to ensure good germination and healthy plants, a fungicide treatment and/or other chemical or physical treatment was applied. The plants were grown for 4-22 days in a greenhouse with an approximate 14 h photoperiod which was maintained at about 29′C during the day and 26° C. during the night. Nutrients were added as Osmocote® (19:6:12, N:P:K+minor nutrients) at 2 g per 16-oz. pot and 4 g per 32-oz. pot. Water was added on a regular basis to maintain the paddy flood, and supplemental lighting was provided with overhead metal halide 1000-Watt lamps as necessary. The plants were employed for testing when they reached the first through fourth true leaf stage.
(§2) Treatments consisted of the acid or esters of 4-amino-3-chloro-5-fluoro-6-(4-chloro-2-fluoro-3-methoxy-phenyl)pyridine-2-carboxylic acid (compound A) each formulated as an SC and various herbicidal components alone and in combination. Forms of compound A were applied on an acid equivalent basis.
(§3) Other herbicidal components were applied on an active ingredient basis and included acetolactate synthase (ALS)-inhibiting herbicides (sulfonylurea chemical class), azimsulfuron formulated as Gulliver®, bensulfuron-methyl formulated as Londax® 60DF, cyclosulfamuron (technical grade materail), ethoxysulfuron formulated as Sunrice® 15 WDG, flucetosulfuron formulated as Sukedachi® 1KG G, imazosulfuron formulated as Brazzos®, metsulfuron-methyl formulated as Lorate®, nicosulfuron formulated as Accent®, orthosulfamuron formulated as Strada® WG, propyrisulfuron formulated as Zeta One®, and rimsulfuron formulated as Matrix® WG.
(§4) Treatment requirements for each compound or herbicidal component were calculated based upon the rates being tested, the concentration of active ingredient or acid equivalent in the formulation, an application volume of 2 mL per component per pot, and an application area of 86.59 cm^2 per pot.
(§5) For formulated compounds, a measured amount was placed in an individual 100 or 200 mL glass vial and was dissolved in a volume of 1.25% (v/v) Agri-Dex® crop oil concentrate to obtain application solutions.
(§6) For technical grade compounds, a weighed amount was placed in an individual 100 to 200 mL glass vial and was dissolved in a volume of acetone to obtain concentrated stock solutions. […] The concentrated stock solutions obtained were diluted with an equivalent volume of an aqueous mixture containing 2.5% (v/v) crop oil concentrate so that the final application solutions contained 1.25% (v/v) crop oil concentrate.
(§7) Applications were made by injecting with a pipetter appropriate amounts of the application solutions, individually and sequentially, into the aqueous layer of the paddy. Control plants were treated in the same manner with the solvent blank. Applications were made so that all treated plant material received the same concentrations of acetone and crop oil concentrate. […]

Test [2] has as its system ECHCG (Echinochloa crus-galli, barnyardgrass). Described as above. Format: in vivo, Echinochloa crus-galli (L.) Beauv. How it is done: as §1, §2, §3, §4, §5
For technical grade compounds, a weighed amount was placed in an individual 100 to 200 mL glass vial and was dissolved in a volume of acetone to obtain concentrated stock solutions. […]

Test [3] concerns GALAP (Galium aparine, cleavers). The test can be described thus: Post-emergence foliar-applied weed control in cereal crops, greenhouse (Example III). Format: in vivo, Galium aparine (L.). The following applies: Table 51, after 20-22 days, 8.75 gai/ha alone. How it is done: Seeds of the desired test plant species were planted in Sun Gro MetroMix® 306 planting mixture, which typically has a pH of 6.0 to 6.8 and an organic matter content of about 30 percent, in plastic pots with a surface area of 103.2 square centimeters (cm^2). When required to ensure good germination and healthy plants, a fungicide treatment and/or other chemical or physical treatment was applied. The plants were grown for 7-36 days in a greenhouse with an approximate 14 hour photoperiod which was maintained at about 18° C. during the day and 17° C. during the night. Nutrients and water were added on a regular basis and supplemental lighting was provided with overhead metal halide 1000-Watt lamps as necessary. […]
Measured aliquot of benzyl ester of 4-amino-3-chloro-5-fluoro-6-(4-chloro-2-fluoro-3-methoxy-phenyl)pyridine-2-carboxylic acid (Compound A) was placed in 25 milliliter (mL) glass vials and diluted in a volume of 1.25% (v/v) Agri-dex crop oil concentrated to obtain stock solutions. […]
The treated plants and control plants were placed in a greenhouse as described above and watered by sub-irrigation to prevent wash-off of the test compounds. After 20-22 days, the condition of the test plants as compared with that of the control plants was determined visually and scored on a scale of 0 to 100 percent where 0 corresponds to no injury and 100 corresponds to complete kill. […]

In test [4] the test system is VERPE (Veronica persica, bird's-eye speedwell). Described as above. The test is classed as in vivo, Veronica persica Poir. Put shortly: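 Greenhouse plants at the second or third true leaf stage (14 hour photoperiod, about 18/17 °C) were track-sprayed at 187 L/ha with Compound A SC, a second cereal herbicide, or their combinations, using 1.25% v/v crop oil concentrate. Injury was scored visually at 20-22 days against solvent-blank controls on a 0–100% scale. Expected mixture effects were calculated with Colby's equation.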

Test [5] deals with ECHCO (Echinochloa colona, junglerice). The test is described as follows: In-water applied weed control, transplanted paddy rice, greenhouse (Example II). Format: in vivo, Echinochloa colona (L.) Link. How it is done:
as §1, §2, §3, §4, §5, §6, §7

Turning to `COc1c(Cl)ccc(-c2nc(C(=O)OCc3ccccc3)c(Cl)c(N)c2F)c1F` [Compound A Benzyl Ester], the “Visual Weed Control (%) - 21 DAA FIMMI Obs” value came to 15% in test [1] (Table 48, 8 gae/ha alone); 65% in test [1] (Table 48, 16 gae/ha alone); 75% in test [1] (Table 48, 32 gae/ha alone). In addition, the “Visual Weed Control (%) - 20 DAA ECHCG Obs” value came out at 15% in test [2] (Table 50, 4.38 gae/ha alone); 20% in test [2] (Table 50, 8.75 gae/ha alone); 40% in test [2] (Table 50, 17.5 gae/ha alone). Besides, in test [3], the “Weed Control GALAP Obs” value was determined as 70%. Further, the “Weed Control VERPE Obs” value in test [4] (Table 51, after 20-22 days, 8.75 gai/ha alone) is recorded as 50%; in test [4] (Table 53, after 20-22 days, 8.75 gai/ha alone), 50%; in test [4] (Table 55, after 20-22 days, 8.75 gai/ha alone) it was 50%; in test [4] (Table 57, after 20-22 days, 8.75 gai/ha Compound A Benzyl Ester alone), 50%. The “Visual Weed Control (%) - 21 DAA ECHCO Obs” value came out at 45% in test [5] (Table 39, 4.38 gae/ha alone); 30% in test [5] (Table 39, 8.75 gae/ha alone); 95% in test [5] (Table 39, 17.5 gae/ha alone).
